The target in test [1] is T1, US28 (Human cytomegalovirus, UniProt P69332). The test is described as follows: 125I-fractalkine radioligand binding to US28 on US28-NSO cells. On the set-up: host or cells: mouse NSO cells (US28-NSO); species or system Cytomegalovirus (CMV). As for the experimental part:
The US28 expressing cells used in most assays consist of a mouse cell line (NSO cells from ATCC) stably expressing transfected US28 cDNA under the control of a CMV promoter (from R & D Systems). These cells were cultured in IMDM-5% FBS, and harvested when the concentration was between 0.5-1.0×10^6 cells/mL. Some assays were performed with adherent human 293 cells (US28-293 cells) or membranes. The cells were centrifuged and resuspended in assay buffer (20 mM HEPES, 140 mM NaCl, 1 mM CaCl2, 5 mM MgCl2, and with 0.2% bovine serum albumin) to a concentration of 5.6×10^6 cells/mL. Using the Multi-Probe automated system, set up with 8 assay plates at a time, first 0.09 mL of cells was added to the assay plates containing the compounds. The final concentration of the compounds was 5 μg/mL each. Then 0.09 mL of ^1251I-fractalkine diluted in assay buffer (final concentration ˜2-10fM, with ˜30,000 cpm per well) was added, the plates sealed and incubated for approximately 3 hours at 4 degrees C on a shaker platform. […] Scintillation fluid (35 μL) was added to all wells, the plates were sealed and counted in a Top Count scintillation counter. […]
Methiothepin mesylate (from the RBI division of Sigma Chemical Co., St. Louis, Mo., USA, Catalog No. M-149) and octoclothepin maleate (from RBI, Catalog No. O-111) were evaluated in the assays described in Examples 1 and 2. […]

Test [2] concerns the target T1, US28. The experiment in a line: cytoplasmic calcium mobilization in US28-293 cells. Type of test: cell-based, Cytomegalovirus (CMV). Also on record: expressed in transfected cells; host or cells: human 293 cells (US28-293). The note with it: INDO-1 dye, mimicking the action of fractalkine in binding and signaling (FIG. 2). Here is the method: For each test, 1×10^6 cells were incubated at 37° C. in the cuvette of a PTI spectrometer, and the ratio of 410/490 nm emission plotted over time (typically 2-3 minutes), with compounds added at 5 seconds, followed by fractalkine at 60 seconds. […] Compounds which inhibited fractalkine binding were tested in this assay for the effects on Ca2+ in this system.
Methiothepin mesylate (from the RBI division of Sigma Chemical Co., St. Louis, Mo., USA, Catalog No. M-149) and octoclothepin maleate (from RBI, Catalog No. O-111) were evaluated in the assays described in Examples 1 and 2. The IC50 values were 0.3 μM for methiothepin mesylate and 0.7 μM for octoclothepin maleate.
On the technique in general: Calcium assays in cells follow changes in intracellular calcium, usually with a dye or a luminescent sensor.

The target of test [3] is T1, US28. On the set-up: host or cells: mouse NSO cells (US28-NSO). The note with it: CX3C chemokine binding to US28; read-out: KI, binding affinity to US28; cited from earlier work.

For orientation: IC50 means the concentration needed to halve the response being measured. One may read the Ki as the dissociation constant of the complex between target and ligand, obtained from inhibition or displacement.

Structures can show the parent of a compound that is named as a salt. Where two headings read alike, the source gives them in different places.

T1 sequence (P69332 whole entry): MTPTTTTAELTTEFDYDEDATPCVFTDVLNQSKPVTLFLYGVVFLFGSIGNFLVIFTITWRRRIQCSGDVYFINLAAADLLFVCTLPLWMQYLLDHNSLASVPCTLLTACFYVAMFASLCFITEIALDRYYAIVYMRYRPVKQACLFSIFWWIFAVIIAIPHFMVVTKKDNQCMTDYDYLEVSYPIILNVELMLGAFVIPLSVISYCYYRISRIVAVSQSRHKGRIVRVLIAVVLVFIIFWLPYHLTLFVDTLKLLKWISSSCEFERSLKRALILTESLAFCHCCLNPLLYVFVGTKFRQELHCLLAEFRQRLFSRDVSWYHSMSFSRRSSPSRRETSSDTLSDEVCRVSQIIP

For `CN1CCN(C2Cc3ccccc3Sc3ccc(Cl)cc32)CC1.O=C(O)/C=C\C(=O)O` (centres unmarked) [octoclothepin maleate, octoclothepin], in test [1] (dose response against fractalkine on US28-NSO cells (FIG. 1), read-out: IC50, inhibition of fractalkine binding to US28), the half-maximal inhibitory concentration (IC50) turned out to be 700 nM. In test [2], the “mode of action in calcium mobilization” value was “competitive agonists”.
Consider `CSc1ccc2c(c1)C(N1CCN(C)CC1)Cc1ccccc1S2` (centres unmarked) [methiothepin mesylate, methiothepin], for which the IC50 in test [1] amounted to 300 nM. Also, the “mode of action in calcium mobilization” value in test [2] is “competitive agonists”.

B1: Fractalkine: the CX3C chemokine, ligand of US28 (protein, UniProt P78423 25-397, looked up)
Fractalkine: QHHGVTKCNITCSKMTSKIPVALLIHYQQNQASCGKRAIILETRQHRLFCADPKEQWVKDAMQHLDRQAAALTRNGGTFEKQIGEVKPRTTPAAGGMDESVVLEPEATGESSSLEPTPSSQEAQRALGTSPELPTGVTGSSGTRLPPTPKAQDGGPVGTELFRVPPVSTAATWQSSAPHQPGPSLWAEAKTSEAPSTQDPSTQASTASSPAPEENAPSEGQRVWGQGQSPRPENSLEREEMGPVPAHTDAFQDWGPGSMAHVSVVPVSSEGTPSREPVASGSWTPKAEEPIHATMDPQRLGVLITPVPDAQAATRRQAVGLLAFLGLLFCLGVAMFTYQSLQGCPRKMAGEMAEGLRYIPRSCGSNSYVLVPV
With B1, in test [3], the inhibitory constant (Ki) was roughly 0.05 nM.

(Values after patent US20020127544A1, “Modulators of US 28” (priority 2000, published 2002).)
